In patent US8536304B2, “Tumour-associated peptides that bind to MHC molecules” (Immatics Biotechnologies GmbH, priority 2002, dated 2013):

Legend:
Assay type in all cases: cell-based, human
[1] = test system: autologous DC of CLL patient; assay: 51Cr-release assay, CTL of CLL patient against autologous peptide-pulsed DC; conditions: adipophilin-peptide-induced CTL of CLL patient; FIG. 6
Protocol: (§1) In the CTL-assays, tumor cells, peptide-pulsed cells of different cell lines and autologous DC were used as target cells. Peptide-pulsed cells were pulsed with 50 μg/ml peptide (SEQ ID No. 1 or SEQ ID No. 2) for 2 hours. All target cells were labeled with [^51Cr] sodium chromate in RP10 (RPMI 1640, supplemented with 10% heat inactivated calf serum and antibiotics) for 1 hour at 37° C. Subsequently, 10^4 cells/well were transferred to a 96-well round bottomed plate. Varying numbers of CTL were added to give a final volume of 200 μl and incubated for 4 hours at 37° C. At the end of the assays, supernatants (50 μl/well) were harvested and counted in a beta-plate counter. […] The spontaneous and maximal release were determined in the presence of either medium or 2% Triton X-100, respectively.
(§2) In a further experiment, CTL were generated from PBMNC of HLA-A*0201-positive patient with chronic lymphatic leukemia (CLL), which were specific for adipophilin-peptide with SEQ ID NO:2. The patient was in remission after treatment with fludarabine. Further, autologous CLL-cells and DC of this patient were used as ^51Cr-labeled targets in an assay, in which ^51Cr-release is mediated by the peptide-induced CTL.

autologous CLL-cells = assay: 51Cr-release assay, CTL of CLL patient against autologous CLL-cells; conditions: CTL from PBMNC of HLA-A*0201-positive CLL patient; FIG. 6
Protocol: as §1, §2

MCF-7 (breast cancer) = assay: 51Cr-release CTL-assay against tumor cell line MCF-7; conditions: cell line MCF-7, FIG. 3d / 3e
Protocol: as §1
(§3) Next, it was tested, in a standard tumor ^51Cr-release-assays again, whether CTL specific for the c-Met-peptide with SEQ ID No. 1 or for adipophilin-peptide with SEQ ID No. 2 recognized and lysed tumor cells, which endogenously express the c-Met-protooncogene or adipophilin. […]

U 266 (multiple myeloma) = assay: 51Cr-release CTL-assay against tumor cell line U 266; conditions: cell line U 266, FIG. 3d / 3e
Protocol: as §1, §3

[2] = test system: autologous DC electroporated with RNA; assay: 51Cr-release CTL-assay against autologous DC electroporated with RNA
Protocol: as §1
In a next experiment, the cytotoxic activity of CTL in an autologous setting was analyzed. In doing so, autologous DC, generated from the same PBMNC that were utilized for CTL induction (see under 2.2.), were used as target cells. Prior to the CTL-assay, the DC were electroporated with RNA, which was previously isolated either from tumor cell lines or which represented control-RNA (in vitro transcribed EGFP-RNA, enhanced Green fluorescent protein-RNA); plasmide: pSP64 Poly(A) EGFPII, obtained from Van Tendeloo, Antwerp, Belgium). Total RNA of tumor cells was isolated with the QIAGEN Rneasy Mini Kit (QIAGEN, Hilden, Germany) according to the manufacturer's protocol. Quantity and purity of RNA were determined by spectrophotometry and stored in aliquots at −80° C.
Prior to electroporation on day 6, immature DC were washed twice with serum-free X-VIVO 20 medium (BioWhittaker, Walkersville, USA) and resuspended to a final concentration of 2×10^7 cells/ml. Subsequently, 200 μl of the cell suspension were mixed with 10 μg of total RNA and electroporated in a 4 mm-cuvette using an Easyject Plus™ (Peglab, Erlangen, Germany) (parameters: 300 V, 150 μF, 1540Ω, pulse time 231 ms). After electroporation the cells were immediately transferred into RP10 medium and returned to the incubator.

dendritic cells (DC) = assay: 51Cr-release CTL-assay against peptide-pulsed DC; conditions: for lysis of DC pulsed with the peptide: CTL induced with SEQ ID No. 1 (FIG. 2b) or SEQ ID No. 2 (FIG. 2d), targets pulsed 50 μg/ml 2 hours
Protocol: Peripheral blood mononuclear cells (PBMNC) were isolated by Ficoll/Paque—(Biochrom, Berlin, Germany)—density gradients centrifugation of heparinized blood obtained from buffy coat preparations of healthy volunteers from the blood bank of the University of Tübingen. Cells were seeded (1×10^7 cells/3 ml per well) into 6-well plates (Falcon, Heidelberg, Germany) in RP10 media (RPMI 1640, supplied with 10% heat-inactivated fetal calf serum and with antibiotics). After 2 hours of incubation at 37° C. and 5% CO2, non-adherent cells were removed and the adherent blood monocytes were cultured in RP10 medium supplemented with the following cytokins: human recombinant GM-CSF (granulocyte makrophage colony stimulating factor; Leukomax, Novartis; 100 ng/ml), Interleukin IL-4 (R&D Systems, Wiesbaden, Germany, 1000 IU/ml) and TNF-α (tumor necrosis factor α) (R&D Systems, Wiesbaden, Germany, 10 ng/ml).
For CTL induction, the DC obtained in step 2.1 (5×10^5) were pulsed with the peptides obtained in step 2.2 with SEQ ID No. 1 or SEQ ID No. 2, each with 50 μg/ml for 2 hours, washed and incubated with 2.5×10^6 autologous PBMNC in RP10 medium.
After 7 days of culture, cells were restimulated with autologous PBMNC pulsed with peptides. In doing so, 1 ng/ml human recombinant Interleukin IL-2 (R&D Systems) was added on days 1, 3 and 5. The cytolytic activity of thereby induced CTL was analyzed on day 5 after the last restimulation in a standard ^51Cr-release-assay (see below, under 2.4: CTL-assay).
In the CTL-assays, tumor cells, peptide-pulsed cells of different cell lines and autologous DC were used as target cells. Peptide-pulsed cells were pulsed with 50 μg/ml peptide (SEQ ID No. 1 or SEQ ID No. 2) for 2 hours. […] At the end of the assays, supernatants (50 μl/well) were harvested and counted in a beta-plate counter. […] The spontaneous and maximal release were determined in the presence of either medium or 2% Triton X-100, respectively. […]

non-malignant B-cells = assay: 51Cr-release assay, CTL of CLL patient against non-malignant B-cells; conditions: FIG. 6
Protocol: as §1, §2

[3] = test system: A 498 (renal cell carcinoma); assay: 51Cr-release CTL-assay against tumor cell line A 498
Protocol: as §1, §3

## SVASTITGV (listed as Homo sapiens) [SEQ ID No. 2, HLA-A*02 ligand, adipose differentiation-related protein 129-137]
[1]
  lysis of autologous DC pulsed with the peptide: efficiently lysed
Autologous CLL-cells
  lysis of autologous CLL-cells by peptide-induced CTL: efficiently lysed
MCF-7 (breast cancer)
  lysis of tumor cells by CTL induced with the peptide: efficiently lyse
U 266 (multiple myeloma)
  lysis of tumor cells by CTL induced with the peptide: efficiently lyse
[2]; RNA of A 498, FIG. 5a / 5b
  lysis of autologous DC electroporated with tumor RNA by CTL induced with the peptide: lysed
[2]; control (EGFP) RNA, FIG. 5b
  lysis of autologous DC electroporated with RNA by CTL induced with the peptide: not lysed
Dendritic cells (DC)
  lysis of DC pulsed with the peptide: lysed
Dendritic cells (DC); autologous setting, FIG. 5b
  lysis of autologous DC pulsed with the peptide by CTL induced with the peptide: lysed
non-malignant B-cells
  lysis of non-malignant B-cells by peptide-induced CTL: not lysed
[3]; cell line A 494, FIG. 3e
  lysis of tumor cells by CTL induced with the peptide: efficiently lyse

## YVDPVITSI (listed as Homo sapiens) [SEQ ID No. 1, HLA-A*02 ligand, met proto-oncogen 654-662]
MCF-7 (breast cancer)
  lysis of tumor cells by CTL induced with the peptide: efficiently lyse
U 266 (multiple myeloma)
  lysis of tumor cells by CTL induced with the peptide: efficiently lyse
[2]; RNA of A 498, FIG. 5a / 5b
  lysis of autologous DC electroporated with tumor RNA by CTL induced with the peptide: specific lysis
[2]; RNA of MCF-7, FIG. 5a
  lysis of autologous DC electroporated with tumor RNA by CTL induced with the peptide: specific lysis
[2]; RNA of non-C-met-expressing cell line Croft, FIG. 5a
  lysis of autologous DC electroporated with RNA by CTL induced with the peptide: not lysed
Dendritic cells (DC)
  lysis of DC pulsed with the peptide: lysed
[3]; cell line A 498, FIG. 3b
  lysis of tumor cells by CTL induced with the peptide: efficiently lyse
